{"source": "paper PMC12851022", "about": "“Targeting the Spliceosomal Protein USP39 Through Allosteric Ligands and PROTAC‐Induced Degradation” (Angewandte Chemie (International Ed. in English), 2025)", "key": {"USP39_FL": {"molecular_target": "T1, USP39_FL (Homo sapiens, UniProt Q53GS9)", "T1 construct": "made in house", "T1 sequence (Q53GS9 1-565)": "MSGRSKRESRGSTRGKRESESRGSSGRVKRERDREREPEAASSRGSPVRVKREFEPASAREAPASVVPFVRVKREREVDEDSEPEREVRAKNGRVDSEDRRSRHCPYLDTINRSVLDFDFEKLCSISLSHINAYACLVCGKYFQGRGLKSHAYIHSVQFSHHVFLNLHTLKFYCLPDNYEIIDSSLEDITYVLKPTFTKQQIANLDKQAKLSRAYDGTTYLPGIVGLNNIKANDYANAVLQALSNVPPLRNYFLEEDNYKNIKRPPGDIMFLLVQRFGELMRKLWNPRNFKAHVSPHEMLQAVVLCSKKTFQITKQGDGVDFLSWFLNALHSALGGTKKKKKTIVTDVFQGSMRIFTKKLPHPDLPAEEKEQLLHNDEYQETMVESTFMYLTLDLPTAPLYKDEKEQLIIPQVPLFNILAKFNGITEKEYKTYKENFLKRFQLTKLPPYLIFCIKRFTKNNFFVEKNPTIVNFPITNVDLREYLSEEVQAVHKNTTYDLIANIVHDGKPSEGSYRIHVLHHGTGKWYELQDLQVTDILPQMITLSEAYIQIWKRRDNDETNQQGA", "experiment": "Thermal shift assay (TSA) with full-length USP39", "type": "binding", "source_text": "To identify potential USP39 binders, we purified full‐length USP39 protein (USP39_FL, Figure SI1B) and conducted chemical screening using two complementary strategies. First, an in‐house bioactive collection of approximately 200 small molecules, previously assembled from our studies on cellular reprogramming, was screened using thermal shift assay (TSA, Figure 1a).^[ [2], [23], [24], [25], [26] ^] […] In parallel, a DNA‐encoded library (DEL) screening comprising roughly 600 million unique small molecules was performed. Each DEL compound carries a covalently attached DNA barcode that enables identification after target binding. For this screening, purified USP39_FL protein was immobilized on magnetic beads and incubated with the library; unbound molecules were washed away, and bound DNA‐tagged compounds were eluted. […]\nFigure 1 Chemical screening identified thiazole‐containing compounds as USP39 binders. a) AlphaFold3‑predicted structure of full‐length USP39 (USP39_FL) showing three domains: an N‑terminal RS‑like domain (grey), a central zinc‑finger (ZNF) domain (cyan), and a C‑terminal USP domain (gold). […] The ΔT values are therefore given under an empty label, with the protein construct written in front. / Panels b and d: the print is small, so the digits in 55.0, 57.5, -2.5, -2.0 and -1.5 are best readings. […]"}, "USP39-OFP": {"molecular_target": "T2, USP39-OFP (Homo sapiens, UniProt Q53GS9)", "T2 construct": "expressed in transfected cells; host or cells: HEK293T", "T2 sequence (Q53GS9 1-565)": "T1 sequence (Q53GS9 1-565)", "experiment": "Fluorescence degradation assay in HEK293T cells co-expressing USP39-OFP and VHL_m (Δ91–121)", "type": "cell-based", "method": "Figure 4 Effective and selective degradation of USP39 in cells by USP39‐PROTACs. a) Optimization of cellular degradation assay in HeLa cells transiently overexpressing USP39‑OFP (HeLa‐USP39‐OFP). […] GAPDH was used as a loading control. g) Proteasome dependence of USP39 degradation. HeLa‐WT cells were co‐treated with MG132 (0.25 µM) or DMSO control and USP39_PROTAC_V1 for 24 h ST. h) Representative immunofluorescence images of HeLa‐USP39_OFP cells treated with DMSO (NT), USP39_PROTAC_V1 (10 nM, 24 h), or USP39_PROTAC_V1 + MLN4924 (1 µM), stained for USP39 (red) and nuclei (blue). i) Quantification of USP39 degradation by fluorescence microscopy, showing DC50 values of 13 nM without MLN4924 (orange) and 204 nM with MLN4924 (blue) (MLN4924 = 5 uM). j) VHL‐dependence of PROTAC‐induced degradation. Schematic of PROTAC recruitment to VHL via hydroxyl‐proline interactions (His115, Ser111). Western blot comparing USP39 levels in VHL WT and VHL KO HeLa cells treated with USP39_PROTAC_V1. k) Fluorescence assay in HEK293T cells co‐expressing USP39‑OFP and either VHL_WT‑EGFP or VHL_m (Δ91–121). […] Comparison of untreated (NT) and USP39_PROTAC_V1–treated (10 nM, 24 h) samples. Percent spliced/unspliced (S/U) ratios are shown, reflecting USP39‐deficiency–associated splicing defects. Data represent at least four independent biological replicates. […]"}, "USP39": {"molecular_target": "T3, USP39 (Homo sapiens, UniProt Q53GS9)", "T3 sequence (Q53GS9 1-565)": "T1 sequence (Q53GS9 1-565)", "experiment": "USP39 degradation across four cell lines (HeLa, HEK293T, LNCap, Kelly)", "type": "cell-based", "parameters": "endogenous in cells; host or cells: HeLa-WT; HEK293T; LNCap; Kelly", "settings": "for Concentration at which USP39 degradation was initiated: HeLa, HEK293T, LNCap, Kelly"}, "HeLa-WT proteome": {"tested_on": "HeLa-WT proteome", "experiment": "Proteome-wide LC-MS/MS and western blot selectivity analysis in HeLa-WT cells", "type": "cell-based, human", "method": "Figure 4 Effective and selective degradation of USP39 in cells by USP39‐PROTACs. a) Optimization of cellular degradation assay in HeLa cells transiently overexpressing USP39‑OFP (HeLa‐USP39‐OFP). […] GAPDH was used as a loading control. g) Proteasome dependence of USP39 degradation. HeLa‐WT cells were co‐treated with MG132 (0.25 µM) or DMSO control and USP39_PROTAC_V1 for 24 h ST. h) Representative immunofluorescence images of HeLa‐USP39_OFP cells treated with DMSO (NT), USP39_PROTAC_V1 (10 nM, 24 h), or USP39_PROTAC_V1 + MLN4924 (1 µM), stained for USP39 (red) and nuclei (blue). i) Quantification of USP39 degradation by fluorescence microscopy, showing DC50 values of 13 nM without MLN4924 (orange) and 204 nM with MLN4924 (blue) (MLN4924 = 5 uM). j) VHL‐dependence of PROTAC‐induced degradation. Schematic of PROTAC recruitment to VHL via hydroxyl‐proline interactions (His115, Ser111). Western blot comparing USP39 levels in VHL WT and VHL KO HeLa cells treated with USP39_PROTAC_V1. k) Fluorescence assay in HEK293T cells co‐expressing USP39‑OFP and either VHL_WT‑EGFP or VHL_m (Δ91–121). […] Comparison of untreated (NT) and USP39_PROTAC_V1–treated (10 nM, 24 h) samples. Percent spliced/unspliced (S/U) ratios are shown, reflecting USP39‐deficiency–associated splicing defects. Data represent at least four independent biological replicates.\nTo assess the selectivity of USP39 degradation, a proteome‐wide analysis was conducted using LC‐MS/MS based proteomics. […] These finding were further validated by western blot (WB) analysis, which confirmed consistent downregulation of USP39, ISG15, and NDRG1."}}, "data": [{"smiles": "Cc1ncsc1-c1ccc(CNC(=O)C2CC(O)CN2C(=O)C(NC(=O)CCOCCOCCOCCNC(=O)c2csc(Nc3ccc(Cl)cc3)n2)C(C)(C)C)cc1", "note": "(centres unmarked) [USP39_PROTAC_V1]", "values": [{"measurement": "∆T (T max_Compound − T max_USP39), USP39_FL", "setting": "USP39_FL", "value": "comparable to that induced by USP39_B1"}, {"measurement": "Fold reduction of degradation effect in VHL_m versus VHL_WT cells", "setting": "USP39-OFP", "value": "more than 80 fold"}, {"measurement": "Concentration above which USP39 levels recover (hook-effect)", "setting": "USP39", "value": "above 500 nM"}, {"measurement": "Concentration at which USP39 degradation was initiated", "setting": "USP39; 6 h of treatment", "value": 5, "unit": "nM"}, {"measurement": "Concentration at which USP39 degradation was initiated", "setting": "USP39; 24 h of treatment", "value": 1, "unit": "nM"}, {"measurement": "USP39 level in proteome-wide analysis", "setting": "HeLa-WT proteome; 5 nM and 50 nM, 24 h, over 6000 detectable proteins, p < 0.0001, log2FC < -4", "value": "most significantly downregulated protein"}, {"measurement": "NDRG1 and ISG15 levels (off-target)", "setting": "HeLa-WT proteome; 5 nM and 50 nM, 24 h, proteomics, validated by WB", "value": "significant downregulation"}, {"measurement": "USP5 and USP10 levels (homologues)", "setting": "HeLa-WT proteome; proteomic and immunoblot analyses", "value": "remained unaffected"}]}]}
